Columns and labels:
[1] = test system: Hs738.St/Int. cells; test: Flow cytometry of FITC-labeled peptides; type: cell-based, human; conditions: 10 μM, 60 min, 4° C.
Procedure: (§1) Preferential binding of FITC-Peptide 2 to target cells was validated using flow cytometry. HT29 and Hs738.St/Int. (˜2×10^5) cells were grown, detached, and blocked as described above. These cells were incubated with the FITC-Peptide 2 or -Control peptide 2 (10 μM) for 60 min at 4° C. with continuous agitation. The cells were then washed (3×) with cold PBST followed by immediate fixing for 10 min. with 4% paraformaldehyde. The cells were washed again (1×) with PBS and resuspended in 1 mL of PBS. Flow cytometry was performed using FACSDiVa (BD® LSRII, BD Biosciences, San Jose, Calif.) and analyzed using Flowjo analysis program (Tree Star Inc., Ashland, Oreg.).
(§2) Preferential binding of the candidate peptide labeled with 5-FITC to the target and control cells was also validated using flow cytometry. HT29 and Hs738.St/Int. (˜2×10^5) cells were grown, detached, and blocked, as described above. These cells were incubated with the 5-FITC labeled candidate or control peptide (10 μM) for 60 min at 4° C. with continuous agitation. The cells were then washed 3× with cold PBST followed by immediate fixation for 10 min with 4% paraformaldehyde. The cells were washed again with PBS and resuspended in 1 mL of PBS. Flow cytometry was performed using FACSDiVa (BD® LSRII, BD Biosciences, San Jose, Calif.) and analyzed using Flowjo analysis program (Tree Star Inc. Ashland, Oreg.).

[2] = test system: HT29 cells; test: Flow cytometry of FITC-labeled peptides; type: cell-based, human; conditions: 10 μM, 60 min, 4° C., FITC channel
Procedure: as §1, §2

Substance: KCCFPAQ-FITC [FITC-Peptide 2, KCCFPAQ with FITC at the C-terminus on the side chain of lysine residue via GGGSK linker]
- binding to Hs738.St/Int. cells on flow cytometry [1]: bound minimally
- total HT29 cell population bound [2]: About 97%
- total HT29 cell population bound ([2]; listed as KCCFPAQ peptide): 97%

From patent US8901276B2, “Peptide reagents and methods for detection of colon dysplasia” (The Regents of the University of Michigan, priority 2010, dated 2014)
